Patent US20250026762A1, “FUSED PYRAZOLE UREA ANALOGS AS GLUCOSYLCERAMIDE SYNTHASE INHIBITORS” (Merck Sharp & Dohme LLC, priority 2021, published 2025)

What follows are compounds tested against glucosylceramide synthase (GCS) enzyme in Golgi preparations from human A375 malignant melanoma skin cells (Homo sapiens (Human), UniProt Q16739) (assay: UDP-Glo glucosylceramide synthase biochemical assay). Conditions: 1.5 μg crude golgi preparation; C6 ceramide and UDP-glucose at 2×Km; 20 h incubation at room temperature; luminescence.
Excerpt: UDP-Glo™ Glucosylceramide Synthase Biochemical Assay
A UDP-Glo™ glucosylceramide synthase biochemical assay was utilized to evaluate the effect of test compounds on the activity of endogenous levels of GCS enzyme contained within Golgi preparations isolated from human A375 malignant melanoma skin cells. The UDP-Glo™ glucosylceramide synthase assay uses UDP-Glucose as a nucleotide-glycosyl donor and ceramide as substrate acceptor molecules. In the reaction, glucosylceramide synthase (GCS) transfers glucose from UDP-Glucose to ceramide. Glucosylceramide and UDP are released as products.
Using Promega's UDP-Glo™ Glycosyltransferase assay kit (Promega Corporation, Madison, WI, USA (Promega)), GCS activity was indirectly measured by detecting the amount of UDP produced. An aliquot of GCS enzyme (1.5 μg crude golgi preparation, total protein) and titrated test compound were aliquoted to each well and incubated for 30 minutes at room temperature. Substrate mixture was prepared by mixing C6 ceramide (Avanti Polar Lipids, Alabaster, AL USA (Avanti)) (micelles prepared at 0.6 mM in 0.6 mM DOPC) and UDP-glucose (20 μM; Promega), at concentrations equivalent to 2×Km, in assay buffer (25 mM HEPES (pH 7.5), 50 mM KCl, 5 mM MgCl2). An equivalent volume of substrate mixture was then added to each well. Following a 20 h incubation at room temperature to allow for GCS turnover of substrate, an equal volume of UDP detection reagent (Promega) was added to each well and incubated for an additional 75 minutes at room temperature to simultaneously convert the accumulated UDP product into ATP and generate light in a luciferase reaction. The generated light was detected using a luminometer. […] luminescence values (RLUs) were normalized to mean “min” and “max” effects, as determined on each plate. “Min” was defined as the mean of the values of the wells treated with vehicle (DMSO) and which represent 0% inhibition; “max” was defined as the mean of the values of the wells treated with a reference inhibitor and which represent the 100% effect. Values for % Emax and EC50 were determined by best-fitting the normalized data to a curve in Activity Base along a four-parameter logistic nonlinear regression (4PL) model (based on the Levenberg-Marquardt algorithm and defined by the equation below): […]
where: n is 4PMin (bottom of the curve); m is 4PMax (top of the curve); i is IP (inflection point of curve); andp is slope. See Levenberg, K., “A Method for the Solution of Certain Problems in Least Squares”, Quart. Appl. Math. 2, (1944), pp 164-168 and Marquardt, D., “An Algorithm for Least Squares Estimation on Nonlinear Parameters”, SIAM J. Appl. Math. 11, (1963) pp 431-441.

Sequence of glucosylceramide synthase (GCS) enzyme in Golgi preparations from human A375 malignant melanoma skin cells (Q16739 whole entry): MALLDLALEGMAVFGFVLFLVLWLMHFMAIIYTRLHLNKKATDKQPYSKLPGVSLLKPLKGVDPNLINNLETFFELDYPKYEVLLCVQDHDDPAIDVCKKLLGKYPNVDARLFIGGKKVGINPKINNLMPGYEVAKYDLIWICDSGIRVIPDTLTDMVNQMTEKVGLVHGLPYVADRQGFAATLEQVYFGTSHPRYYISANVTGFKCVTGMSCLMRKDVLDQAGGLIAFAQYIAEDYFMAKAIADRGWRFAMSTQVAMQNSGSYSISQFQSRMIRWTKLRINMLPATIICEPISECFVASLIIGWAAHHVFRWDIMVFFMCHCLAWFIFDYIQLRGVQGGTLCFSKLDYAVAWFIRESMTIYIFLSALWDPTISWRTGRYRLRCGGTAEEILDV

| SMILES | EC50 |
| --- | --- |
| O=C(N1CCN2CCC1CC2)n1nc(-c2cc(Cl)c(F)cn2)c2c1COCC2 [Compound 49, (1,4-diazabicyclo[3.2.2]nonan-4-yl)(3-(4-chloro-5-fluoropyridin-2-yl)-4,7-dihydropyrano[3,4-c]pyrazol-1(5H)-yl)methanone] | 8.3 nM |
| Cc1ccccc1-c1nn(C(=O)N2CCN3CCC2CC3)c2c1CCOC2 [Compound 28, (1,4-diazabicyclo[3.2.2]nonan-4-yl)(3-(o-tolyl)-4,7-dihydropyrano[3,4-c]pyrazol-1(5H)-yl)methanone] | 6.6 nM |
| Cc1ccc(-c2nn(C(=O)N3CCN4CCC3CC4)c3c2CCC3)cc1 [Compound 31, 1,4-diazabicyclo[3.2.2]nonan-4-yl-[3-(p-tolyl)-5,6-dihydro-4H-cyclopenta[c]pyrazol-1-yl]methanone] | 0.2 nM |
| O=C(N1CCN2CCC1CC2)n1nc(-c2cc(F)c(F)cc2F)c2c1CCOC2 [Compound 45, (1,4-diazabicyclo[3.2.2]nonan-4-yl)(3-(2,4,5-trifluorophenyl)-6,7-dihydropyrano[4,3-c]pyrazol-1(4H)-yl)methanone] | 2.3 nM |
| COc1cnn(-c2nn(C(=O)N3CCN4CCC3CC4)c3c2CCC3)c1 [Compound 58, (1,4-diazabicyclo[3.2.2]nonan-4-yl)(3-(4-methoxy-1H-pyrazol-1-yl)-5,6-dihydrocyclopenta[c]pyrazol-1(4H)-yl)methanone] | 10 nM |
| COc1ccc(-c2nn(C(=O)N3CCN4CCC3CC4)c3c2CCOC3)cc1Cl [Compound 3, 1,4-diazabicyclo[3.2.2]nonan-4-yl(3-(3-chloro-4-methoxyphenyl)-4,5-dihydropyrano[3,4-c]pyrazol-1(7H)-yl)methanone] | 1.4 nM |
| O=C(N1CCN2CCC1CC2)n1nc(N2CCC3(CC2)CC3)c2c1COCC2 [Compound 52, (3-(6-azaspiro[2.5]octan-6-yl)-4,7-dihydropyrano[3,4-c]pyrazol-1(5H)-yl)(1,4-diazabicyclo[3.2.2]nonan-4-yl)methanone] | 18.3 nM |
| CC1(C)CCCN(c2nn(C(=O)N3CCN4CCC3CC4)c3c2CCC3)C1 [Compound 24, (1,4-diazabicyclo[3.2.2]nonan-4-yl)(3-(3,3-dimethylpiperidin-1-yl)-5,6-dihydrocyclopenta[c]pyrazol-1(4H)-yl)methanone] | 7.8 nM |
| O=C(N1CCN2CCC1CC2)n1nc(-c2ccc(F)cc2)c2c1CCC(F)(F)C2 [Compound 19, (1,4-diazabicyclo[3.2.2]nonan-4-yl)(5,5-difluoro-3-(4-fluorophenyl)-4,5,6,7-tetrahydro-1H-indazol-1-yl)methanone] | 8.2 nM |
| COc1c(F)cccc1-c1nn(C(=O)N2CCN3CCC2CC3)c2c1CCC2 [Compound 38, 1,4-diazabicyclo[3.2.2]nonan-4-yl-[3-(3-fluoro-2-methoxy-phenyl)-5,6-dihydro-4H-cyclopenta[c]pyrazol-1-yl]methanone] | 0.6 nM |
| O=C(N1CCN2CCC1CC2)n1nc(N2CCC(F)(F)CC2)c2c1CCC2 [Compound 51, (1,4-diazabicyclo[3.2.2]nonan-4-yl)(3-(4,4-difluoropiperidin-1-yl)-5,6-dihydrocyclopenta[c]pyrazol-1(4H)-yl)methanone] | 7 nM |
| Cn1ncc2ccc(-c3nn(C(=O)N4CCN5CCC4CC5)c4c3CCC4)cc21 [Compound 22, 1,4-diazabicyclo[3.2.2]nonan-4-yl-[3-(1-methylindazol-6-yl)-5,6-dihydro-4H-cyclopenta[c]pyrazol-1-yl]methanone] | 6.3 nM |
| COc1ncc(-c2nn(C(=O)N3CCN4CCC3CC4)c3c2CCOC3)cc1Cl [Compound 32, (1,4-diazabicyclo[3.2.2]nonan-4-yl)(3-(5-chloro-6-methoxypyridin-3-yl)-4,7-dihydropyrano[3,4-c]pyrazol-1(5H)-yl)methanone] | 7.6 nM |
| COc1nccc(-c2nn(C(=O)N3CCN4CCC3CC4)c3c2CCOC3)c1Cl [Compound 34, (1,4-diazabicyclo[3.2.2]nonan-4-yl)(3-(3-chloro-2-methoxypyridin-4-yl)-4,7-dihydropyrano[3,4-c]pyrazol-1(5H)-yl)methanone] | 15.3 nM |
| Cc1cccc(-c2nn(C(=O)N3CCN4CCC3CC4)c3c2COCC3)c1F [Compound 39, (1,4-diazabicyclo[3.2.2]nonan-4-yl)(3-(2-fluoro-3-methylphenyl)-6,7-dihydropyrano[4,3-c]pyrazol-1(4H)-yl)methanone] | 0.3 nM |
| COc1ncc(-c2nn(C(=O)N3CCN4CCC3CC4)c3c2COCC3)cc1Cl [Compound 47, (1,4-diazabicyclo[3.2.2]nonan-4-yl)(3-(5-chloro-6-methoxypyridin-3-yl)-6,7-dihydropyrano[4,3-c]pyrazol-1(4H)-yl)methanone] | 8.3 nM |
| O=C(N1CCN2CCC1CC2)n1nc(-c2ccc(F)c(Cl)c2)c2c1COCC2 [Compound 7, [3-(3-chloro-4-fluoro-phenyl)-5,7-dihydro-4H-pyrano[3,4-c]pyrazol-1-yl]-(1,4-diazabicyclo[3.2.2]nonan-4-yl)methanone] | 1 nM |
| CC1(C)Cc2c(c(-c3ccc(F)cc3)nn2C(=O)N2CCN3CCC2CC3)CO1 [Compound 18, (1,4-diazabicyclo[3.2.2]nonan-4-yl)(3-(4-fluorophenyl)-6,6-dimethyl-6,7-dihydropyrano[4,3-c]pyrazol-1(4H)-yl)methanone] | 9.8 nM |
| Cn1nc(C(F)(F)F)cc1-c1nn(C(=O)N2CCN3CCC2CC3)c2c1CCC2 [Compound 33, 1,4-diazabicyclo[3.2.2]nonan-4-yl-[3-[2-methyl-5-(trifluoromethyl)pyrazol-3-yl]-5,6-dihydro-4H-cyclopenta[c]pyrazol-1-yl]methanone] | 5.9 nM |
| O=C(N1CCN2CCC1CC2)n1nc(-n2cc(Cl)cn2)c2c1CCC2 [Compound 56, (1,4-diazabicyclo[3.2.2]nonan-4-yl)(3-(4-chloro-1H-pyrazol-1-yl)-5,6-dihydrocyclopenta[c]pyrazol-1(4H)-yl)methanone] | 3 nM |
| O=C(N1CCN2CCC1CC2)n1nc(-c2ccc(F)c(Cl)c2)c2c1CCOC2 [Compound 36, (1,4-diazabicyclo[3.2.2]nonan-4-yl)(3-(3-chloro-4-fluorophenyl)-6,7-dihydropyrano[4,3-c]pyrazol-1(4H)-yl)methanone] | 0.3 nM |
| O=C(N1CCN2CCC1CC2)n1nc(-c2ccc(OC(F)F)c(Cl)c2)c2c1COCC2 [Compound 2, 1,4-diazabicyclo[3.2.2]nonan-4-yl(3-(3-chloro-4-(difluoromethoxy)phenyl)-4,5-dihydropyrano[3,4-c]pyrazol-1(7H)-yl)methanone] | 2.9 nM |
| O=C(N1CCN2CCC1CC2)n1nc(-c2ccc(F)cc2)c2c1CC1CC21 (single isomer, unassigned) [Compound 15, (R,R) or (S,S)--(1,4-diazabicyclo[3.2.2]nonan-4-yl)(3-(4-fluorophenyl)-3b,4,4a,5-tetrahydro-1H-cyclopropa[3,4]cyclopenta[1,2-c]pyrazol-1-yl)methanone] | 0.1 nM |
| O=C(N1CCN2CCC1CC2)n1nc(-c2ccc3c(c2)CCO3)c2c1CCC2 [Compound 43, 1,4-diazabicyclo[3.2.2]nonan-4-yl-[3-(2,3-dihydrobenzofuran-5-yl)-5,6-dihydro-4H-cyclopenta[c]pyrazol-1-yl]methanone] | 0.5 nM |
| Cc1c(-c2ccc(F)cc2)nn(C(=O)N2CCN3CCC2CC3)c1C [Compound 64, (1,4-diazabicyclo[3.2.2]nonan-4-yl)(3-(4-fluorophenyl)-4,5-dimethyl-1H-pyrazol-1-yl)methanone] | 8.8 nM |
| O=C(N1CCN2CCC1CC2)n1nc(C23CCCC2C3)c2c1CCC2 (single isomer, unassigned) [Compound 9, R or S-(3-(bicyclo[3.1.0]hexan-1-yl)-5,6-dihydrocyclopenta[c]pyrazol-1(4H)-yl)(1,4-diazabicyclo[3.2.2]nonan-4-yl)methanone] | 2.4 nM |
| O=C(N1CCN2CCC1CC2)n1nc(-c2ccc(F)cc2)c2c1CCOC2 [Compound 13, 1,4-diazabicyclo[3.2.2]nonan-4-yl-[3-(4-fluorophenyl)-6,7-dihydro-4H-pyrano[4,3-c]pyrazol-1-yl]methanone] | 4.1 nM |
| COc1ccc(F)c(-c2nn(C(=O)N3CCN4CCC3CC4)c3c2CCC3)c1 [Compound 44, 1,4-diazabicyclo[3.2.2]nonan-4-yl-[3-(2-fluoro-5-methoxy-phenyl)-5,6-dihydro-4H-cyclopenta[c]pyrazol-1-yl]methanone] | 1.7 nM |
